Data taken from PubChem BioAssay AID489035 (Sanford-Burnham Center for Chemical Genomics, 2010).
The source made the active and inactive calls. How the calls were made is not given here.

Each compound was assayed on Jurkat NF-kB reporter, TCR-induced, luciferase luminescence (assay: T-cell NF-kB luciferase reporter inhibition – Jurkat cells, luminescence, dose response (AID 489035)).
`O=C(c1cc(-c2ccncc2)nc2c(Cl)cccc12)N1CCN(c2ccccc2F)CC1` was tested, and the IC50 was > 80 µM (inactive). `COc1ccc(CCNc2cc(N3CCN(C(=O)c4ccccc4F)CC3)ccc2[N+](=O)[O-])cc1OC` was tested, and the IC50 was > 80 µM (inactive). `CCOc1ccccc1C(=O)Nc1ccc2nc(N3CCN(c4ncccn4)CC3)cc(C)c2c1` gave an IC50 of 4.28 µM. Compound `O=C(Nc1cccc2ccccc12)OC1C=CS(=O)(=O)C1` (stereo unspecified) has an IC50 of 1.06 µM. `Cc1ccc(-c2cc3c(N=O)c4ccccc4c-3n[nH]2)cc1` gave an IC50 of 1.65 µM. Compound `C=C(C)COc1ccc(-c2[nH]ncc2-c2ccc(OC)c(OC)c2)c(O)c1` has an IC50 of 13.6 µM. Work on `COc1ccc(/C=N/Nc2cc(C)nc3ccc(OC)cc23)c(OC)c1` yielded an IC50 of 2.4 µM. Work on `CC1=C(C(=O)OCc2ccc3c(c2)OCO3)C(c2ccc(Cl)cc2)NC(=O)N1` (stereo unspecified) yielded an IC50 of 0.63 µM. For `Cc1c(C)c2ccc(OCC(=O)Nc3ccccn3)c(C)c2oc1=O`, the IC50 was 0.39 µM. With `CCOc1ccccc1C(=O)N1CCN(c2cccc(Cl)c2)CC1` the IC50 was > 80 µM (inactive). `Cc1noc(C)c1COc1ccc(CC(=O)NCc2ccccc2)cc1` was tested, and the IC50 was > 80 µM (inactive). `O=C(Sc1cccc2cccnc12)c1ccc(F)cc1` gave an IC50 of 0.99 µM. For `COc1ccc2nc(C)cc(N/N=C/c3ccc(F)cc3)c2c1`, the IC50 was 2.35 µM. Compound `C=C(C=O)C[C@@H]1C[C@H](O)C2OC3C[C@]4(C)OC5/C=C\CC6OC7C(CC=CCC6OC5CCCC4OC3CC2O1)OC1CC2OC3CC(=O)OC3C[C@@H](C)C[C@@]2(C)OC1C[C@@H]7C` (stereo partly specified) has an IC50 of 1.39 µM. `O=C(Nc1ccc(Cc2ccncc2)cc1)c1ccc(S(=O)(=O)N2CCCC2)cc1` was tested, and the IC50 was 77.4 µM (inactive). In the case of `COc1ccccc1N=C(C)C1=C(O)CC(c2ccccc2)CC1=O` (stereo unspecified), the IC50 is reported as > 80 µM (inactive). Work on `CCSc1nc2ccccc2n1C(=O)/C=C\c1ccc(OC)c(OC)c1` yielded an IC50 of 2.27 µM. For `CCCCCn1c2c(c(=N)c3ccccc31)CCC2`, the IC50 was > 80 µM (inactive). In the case of `C[C@]12CC[C@H]3[C@@H](CC[C@]4(O)C[C@@H](O)CC[C@]34C=O)[C@@]1(O)CC[C@@H]2C1=CC(=O)OC1`, the IC50 is reported as 68.9 µM (inactive). In the case of `COc1ccccc1N1CCN(C(=O)C2c3ccccc3Oc3ccccc32)CC1`, the IC50 is reported as 57.2 µM (inactive). `C=C1C(=O)C=C2CN(C(=O)c3ccccc3)[C@@](Cc3ccc(F)cc3)(C(=O)OC)[C@@H]12` gave an IC50 of 0.89 µM. For `Cc1ccc(-c2cc(C(F)F)n3ncc(C(=O)N4CCc5ccccc54)c3n2)cc1`, the IC50 was > 80 µM (inactive). With `COc1cccc(-c2cc(=O)c3cc(NC(=O)c4ccccc4)ccc3[nH]2)c1` the IC50 was > 80 µM (inactive). In the case of `CCOc1cccc(-c2nnc3n2N=C(c2cc(OC)ccc2OC)CS3)c1`, the IC50 is reported as > 80 µM (inactive). With `Cc1ccc(C(=O)c2cc([N+](=O)[O-])ccc2N2CCCCC2)c(C)c1` the IC50 was > 80 µM (inactive). `CN(C)S(=O)(=O)c1ccc(Nc2nc(C3CC3)nc3c2nnn3Cc2ccccc2Cl)cc1` was tested, and the IC50 was > 80 µM (inactive). Work on `Cc1cc(C)cc(NC(=O)c2ccc([N+](=O)[O-])o2)c1` yielded an IC50 of 0.95 µM. In the case of `COc1cc(C2c3cc4c(cc3CC3COC(=O)C32)OCO4)cc(OC)c1OC` (stereo unspecified), the IC50 is reported as > 80 µM (inactive). For `COc1cccc(C2CC(=O)Nc3cc4c(cc32)CCC4)c1` (stereo unspecified), the IC50 was > 80 µM (inactive). With `Cc1ccc2c(c1)C=CC(C#N)N2C(=O)c1ccccc1` (stereo unspecified) the IC50 was > 80 µM (inactive). `COc1ccc(-n2nnnc2-c2cccc(OC)c2)cc1` was tested, and the IC50 was > 80 µM (inactive). `COc1ccc(S(=O)(=O)/N=C2\C=C(Nc3ccc(O)cc3)C(=O)c3ccccc32)cc1` showed an IC50 of 0.53 µM. Work on `COc1ccc(-[n+]2c(-c3ccccc3)cc(-c3ccc(C)cc3)cc2-c2ccccc2)cc1` yielded an IC50 of 4.95 µM. In the case of `CCS(=O)(=O)c1ncc(Cl)c(C(=O)Nc2ccc(S(=O)(=O)N(C)c3ccccc3)cc2)n1`, the IC50 is reported as 0.8 µM. `C=CCn1c(SCc2c(C)noc2C)nc2ccccc2c1=O` was tested, and the IC50 was 23 µM (inactive). For `CN1/C(=C\C(=O)C[n+]2ccc3ccccc3c2)C(C)(C)c2ccccc21`, the IC50 was 38 µM (inactive). `Cc1ccc(C(=O)Nc2ncc(Cc3ccc(SC(F)F)cc3)s2)cc1` was tested, and the IC50 was > 80 µM (inactive). `CCCCCCCCCCCCCCCC[n+]1ccc(/C=N/O)cc1` was tested, and the IC50 was 1.57 µM. `Cc1nc(SCC(=O)Nc2nc3ccccc3s2)c(C#N)c(C)c1C` was tested, and the IC50 was 0.75 µM. In the case of `Cc1ccc2nc(SCC(=O)Nc3cc(C(F)(F)F)ccc3N3CCOCC3)[nH]c2c1`, the IC50 is reported as > 80 µM (inactive). For `O=C(Nc1ccn(Cc2ccccc2F)n1)c1ccc(COc2ccc(Br)cc2)cc1`, the IC50 was > 80 µM (inactive). With `COc1ccc(C2=NOC(C(=O)NCc3cccs3)C2)cc1OC` (stereo unspecified) the IC50 was > 80 µM (inactive). In the case of `COc1cc(-c2noc(C)c2C#Cc2ccsc2)cc(OC)c1OC`, the IC50 is reported as > 80 µM (inactive). In the case of `COc1cc(NCCCCCCCN)c2ncccc2c1`, the IC50 is reported as 21 µM (inactive). In the case of `CCCC(=O)NC(c1ccc(C(C)C)cc1)c1ccc2cccnc2c1O` (stereo unspecified), the IC50 is reported as 4.15 µM. With `CCOC(=O)c1[nH]c(C)c(C(=O)c2cc(F)ccc2F)c1C` the IC50 was > 80 µM (inactive). With `COc1cc(OC)c(/C=C2\C(=O)Nc3ccccc32)c(OC)c1` the IC50 was 18.4 µM. With `CCc1c(C)nc2ncnn2c1NCCc1ccc(OC)cc1` the IC50 was > 80 µM (inactive). For `C[C@]12CC[C@H](O)C[C@H]1CC[C@@H]1[C@@H]2C[C@@H](O)[C@]2(C)[C@@H](C3=CC(=O)OC3)CC[C@]12O`, the IC50 was 65.7 µM (inactive). With `CN(C)c1ccc(-c2nn3c(-c4ccccc4Cl)nnc3s2)cc1` the IC50 was > 80 µM (inactive). `CNC[C@@H](CC1CCCCC1)NC[C@H](CC(C)C)NCCc1cccc(C(F)(F)F)c1` showed an IC50 of 5 µM.
